The target of one assay is T1, TBK1 (Homo sapiens, UniProt Q9UHD2).
T1 sequence (Q9UHD2 1-729): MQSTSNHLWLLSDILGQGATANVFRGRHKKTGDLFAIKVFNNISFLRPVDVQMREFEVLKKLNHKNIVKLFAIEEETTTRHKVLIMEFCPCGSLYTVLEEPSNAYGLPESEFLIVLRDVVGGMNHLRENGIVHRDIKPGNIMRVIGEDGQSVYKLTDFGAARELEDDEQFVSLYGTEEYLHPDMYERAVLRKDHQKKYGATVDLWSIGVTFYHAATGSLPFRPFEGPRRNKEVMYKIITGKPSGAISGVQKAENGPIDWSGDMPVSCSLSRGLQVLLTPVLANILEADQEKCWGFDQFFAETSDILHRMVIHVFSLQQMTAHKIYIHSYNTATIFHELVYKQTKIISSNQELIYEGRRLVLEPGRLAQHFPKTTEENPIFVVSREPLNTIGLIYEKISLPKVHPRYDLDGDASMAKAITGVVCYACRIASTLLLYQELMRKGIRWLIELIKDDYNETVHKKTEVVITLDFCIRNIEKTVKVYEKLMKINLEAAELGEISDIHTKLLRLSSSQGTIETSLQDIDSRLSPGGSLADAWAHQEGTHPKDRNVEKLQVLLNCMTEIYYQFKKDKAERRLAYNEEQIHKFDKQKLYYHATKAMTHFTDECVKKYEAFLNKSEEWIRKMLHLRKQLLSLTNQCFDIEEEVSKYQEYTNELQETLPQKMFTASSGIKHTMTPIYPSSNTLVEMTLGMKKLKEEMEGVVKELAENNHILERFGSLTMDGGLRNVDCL
The assay can be described thus: TBK biochemical assay. The note with it: 10 point 1:4 dose response, 30 uM top concentration, 90 min at 25° C., LabChip EZ Reader II; read-out: TBK1_IC50. The procedure, abridged:
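Read-out was a Caliper LabChip mobility-shift assay, run after a 90-min, 25 °C reaction of TBK1 with substrate and compounds, quenched with stop buffer. Control wells received staurosporine at 10 uM final.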

The next assay has as its target T2, IKKε (Homo sapiens, UniProt Q14164).
T2 sequence (Q14164 1-716): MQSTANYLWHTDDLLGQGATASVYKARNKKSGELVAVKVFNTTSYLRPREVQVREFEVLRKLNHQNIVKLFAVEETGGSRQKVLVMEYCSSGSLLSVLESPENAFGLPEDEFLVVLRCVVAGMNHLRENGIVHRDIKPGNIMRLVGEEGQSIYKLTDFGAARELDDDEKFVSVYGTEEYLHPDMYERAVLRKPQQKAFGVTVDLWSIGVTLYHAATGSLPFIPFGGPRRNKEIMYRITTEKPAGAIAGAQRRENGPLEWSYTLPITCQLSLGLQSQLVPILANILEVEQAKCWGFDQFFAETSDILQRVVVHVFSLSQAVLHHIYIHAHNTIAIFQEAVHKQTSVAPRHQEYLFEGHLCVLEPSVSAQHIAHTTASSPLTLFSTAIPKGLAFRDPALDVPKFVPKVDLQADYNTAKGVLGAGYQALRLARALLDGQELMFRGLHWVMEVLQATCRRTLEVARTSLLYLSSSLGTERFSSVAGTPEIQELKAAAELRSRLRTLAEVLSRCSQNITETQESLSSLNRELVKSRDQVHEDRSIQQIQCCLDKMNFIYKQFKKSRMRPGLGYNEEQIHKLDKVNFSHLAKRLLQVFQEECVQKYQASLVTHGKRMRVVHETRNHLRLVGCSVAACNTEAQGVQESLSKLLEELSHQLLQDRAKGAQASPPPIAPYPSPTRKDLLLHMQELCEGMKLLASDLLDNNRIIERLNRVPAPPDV
The assay can be described thus: IKKε biochemical assay. The note with it: 10 point 1:4 dose response, 30 uM top concentration, 90 min at 25° C., LabChip EZ Reader II; read-out: IKKε_IC50. The procedure, abridged: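 Mobility-shift LabChip read-out followed a 90 min, 25° C. reaction of IKKε with substrate and test compound, with DMSO held at 1% final. Reactions were ended with stop buffer. Wells with 10 uM final staurosporine defined complete inhibition, and DMSO-only wells the uninhibited level.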

This passage reports IC50 results from patent US20230019491A1, “PYRIMIDINE TBK/IKKe INHIBITOR COMPOUNDS AND USES THEREOF” (Merck Patent GmbH, priority 2017, published 2023).

The structures appear in SMILES notation.

With `COc1nc(Nc2nccc(-c3ccc(O[C@@H]4CCN(C(=O)[C@@H](C)O)C[C@H]4F)c(C#N)c3)n2)ccc1C1CCN(C2COC2)CC1` [Example 193, 2-[(3R,4R)-3-Fluoro-1-((R)-2-hydroxy-propionyl)-piperidin-4-yloxy]-5-[2-(2-methoxy-1′-oxetan-3-yl-1′,2′,3′,4′,5′,6′-hexahydro-[3,4′]bipyridinyl-6-ylamino)-pyrimidin-4-yl]-benzonitrile], the IC50 at TBK1 and at IKKε was 0.1 to 1 µM throughout.
For `COc1nc(Nc2nccc(-c3ccc(OC4CCN(C(=O)[C@H](C)O)CC4(F)F)c(C#N)c3)n2)ccc1N1CCN(C2COC2)C[C@@H]1C` (stereo partly drawn) [Example 131, 2-[3,3-Difluoro-1-((S)-2-hydroxy-propionyl)-piperidin-4-yloxy]-5-{2-[6-methoxy-5-((S)-2-methyl-4-oxetan-3-yl-piperazin-1-yl)-pyridin-2-ylamino]-pyrimidin-4-yl}-benzonitrile], the IC50 at TBK1 and at IKKε was below 0.1 µM throughout.
For `COc1nc(Nc2nccc(-c3ccc(OC4CCN(C(=O)[C@H](C)O)CC4(F)F)c(C#N)c3)n2)ccc1C1CCN(C2COC2)CC1` (stereo partly drawn) [Example 152, 2-[3,3-Difluoro-1-((S)-2-hydroxy-propionyl)-piperidin-4-yloxy]-5-[2-(2-methoxy-1′-oxetan-3-yl-1′,2′,3′,4′,5′,6′-hexahydro-[3,4′]bipyridinyl-6-ylamino)-pyrimidin-4-yl]-benzonitrile], the IC50 on TBK1 and on IKKε was below 0.1 µM each time.
As for `COc1nc(Nc2nccc(-c3ccc(OC4(C)CCN(C(=O)[C@@H](O)CO)CC4)c(C#N)c3)n2)ccc1N1CCN(C2COC2)CC1` [Example 269, 2-[1-((S)-2,3-Dihydroxy-propionyl)-4-methyl-piperidin-4-yloxy]-5-{2-[6-methoxy-5-(4-oxetan-3-yl-piperazin-1-yl)-pyridin-2-ylamino]-pyrimidin-4-yl}-benzonitrile], the IC50 on TBK1 and at IKKε was below 0.1 µM in each case.
As for `COc1nc(Nc2nccc(-c3ccc(OC4CCOCC4)c(C#N)c3)n2)ccc1C1CCN(C)C1` (stereo not shown) [Example 42, 5-(2-[[6-methoxy-5-(1-methylpyrrolidin-3-yl)pyridin-2-yl]amino]pyrimidin-4-yl)-2-(oxan-4-yloxy)benzonitrile], the IC50 on TBK1 and at IKKε was below 0.1 µM throughout.
As to `C[C@H](O)C(=O)N1CCC(Oc2ccc(-c3ccnc(Nc4ccc(N5CCOCC5)cc4)n3)cc2C#N)C(F)(F)C1` (stereo partly drawn) [Example 216, 2-([3,3-difluoro-1-[(2S)-2-hydroxypropanoyl]piperidin-4-yl]oxy)-5-(2-[[4-(morpholin-4-yl)phenyl]amino]pyrimidin-4-yl)benzonitrile], the IC50 at TBK1 and on IKKε was below 0.1 µM each time.
Turning to `COc1nc(Nc2nccc(-c3ccc(N4CC5(CCNCC5)C4)c(C#N)c3)n2)ccc1N1CCN(C2COC2)CC1` [Example 312, 2-(2,7-Diaza-spiro[3.5]non-2-yl)-5-{2-[6-methoxy-5-(4-oxetan-3-yl-piperazin-1-yl)-pyridin-2-ylamino]-pyrimidin-4-yl}-benzonitrile], the IC50 at TBK1 and on IKKε was 0.1 to 1 µM in each case.
On to `COc1nc(Nc2nccc(-c3ccc(OC4CCN(C(=O)[C@H](C)O)CC4(F)F)c(C#N)c3)n2)ccc1N1CCN(C)C[C@@H]1C` (stereo partly drawn) [Example 113, 2-[3,3-Difluoro-1-((S)-2-hydroxy-propionyl)-piperidin-4-yloxy]-5-{2-[5-((S)-2,4-dimethyl-piperazin-1-yl)-6-methoxy-pyridin-2-ylamino]-pyrimidin-4-yl}-benzonitrile], for which the IC50 at TBK1 and on IKKε was below 0.1 µM throughout.
For `COc1nc(Nc2nccc(-c3ccc(OC4CCOC4)c(C#N)n3)n2)ccc1C(=O)N(C)C` (stereo not shown) [Example 68, 6-([4-[6-cyano-5-(oxolan-3-yloxy)pyridin-2-yl]pyrimidin-2-yl]amino)-2-methoxy-N,N-dimethylpyridine-3-carboxamide], the IC50 on TBK1 and on IKKε was below 0.1 µM each time.
For the compound `COc1nc(Nc2nccc(-c3ccc(OC4CCOCC4)c(C#N)c3)n2)ccc1C(=O)NC[C@H](O)CO` [Example 4, 6-{4-[3-Cyano-4-(tetrahydro-pyran-4-yloxy)-phenyl]-pyrimidin-2-ylamino}-N-((S)-23-dihydroxy-propyl)-2-methoxy-nicotinamide], the IC50 at TBK1 and on IKKε was below 0.1 µM each time.
As to `COc1nc(Nc2nccc(-c3ccc(OC4CCN(C(=O)[C@@H](O)CO)CC4(F)F)c(C#N)c3)n2)ccc1N1CCN(C2COC2)C[C@H]1C` (stereo partly drawn) [Example 133, 2-[1-((S)-2,3-Dihydroxy-propionyl)-3,3-difluoro-piperidin-4-yloxy]-5-{2-[6-methoxy-5-((R)-2-methyl-4-oxetan-3-yl-piperazin-1-yl)-pyridin-2-ylamino]-pyrimidin-4-yl}-benzonitrile], the IC50 on TBK1 and on IKKε was below 0.1 µM in each case.
For `COc1nc(Nc2nccc(-c3ccc(O[C@H]4CCN(C(=O)[C@@H](O)CO)C[C@@H]4F)c(C#N)c3)n2)ccc1N1CCN(C2COC2)CC1` [Example 197, 2-[(3S,4S)-1-((S)-2,3-Dihydroxy-propionyl)-3-fluoro-piperidin-4-yloxy]-5-{2 [6-methoxy-5-(4-oxetan-3-yl-piperazin-1-yl)-pyridin-2-ylamino]-pyrimidin-4-yl}-benzonitrile], the IC50 on TBK1 and at IKKε was below 0.1 µM each time.
As to `N#Cc1cc(-c2ccnc(Nc3ccc(C4CCN(C5COC5)CC4)cc3)n2)ccc1OC1CCOCC1` [Example 151, 5-{2-[4-(1-Oxetan-3-yl-piperidin-4-yl)-phenylamino]-pyrimidin-4-yl}-2-(tetrahydro-pyran-4-yloxy)-benzonitrile], the IC50 on TBK1 and at IKKε was below 0.1 µM in each case.
For `COc1nc(Nc2nccc(-c3ccc(OC4CCN(C(=O)CC#N)CC4(F)F)c(C#N)c3)n2)ccc1N1CCN(C2COC2)CC1` (stereo not shown) [Example 253, 2-[1-(2-Cyano-acetyl)-3,3-difluoro-piperidin-4-yloxy]-5-{2-[6-methoxy-5-(4-oxetan-3-yl-piperazin-1-yl)-pyridin-2-ylamino]-pyrimidin-4-yl}-benzonitrile], the IC50 on TBK1 and on IKKε was below 0.1 µM in each case.
Consider `N#Cc1cc(-c2ccnc(Nc3cccc(C4CCN(C5COC5)CC4)c3)n2)ccc1OC1CCN(C(=O)CO)CC1(F)F` (stereo not shown) [Example 223, 2-[3,3-Difluoro-1-(2-hydroxy-acetyl)-piperidin-4-yloxy]-5-{2-[3-(1-oxetan-3-yl-piperidin-4-yl)-phenylamino]-pyrimidin-4-yl}-benzonitrile], for which the IC50 on TBK1 and on IKKε was below 0.1 µM each time.
Take `COc1nc(Nc2nccc(-c3ccc(OC4CCNCC4)c(C#N)c3)n2)ccc1N1CCN(C2COC2)CC1` [Example 185, 5-[2-({6-methoxy-5-[4-(oxetan-3-yl)piperazin-1-yl]pyridin-2-yl}amino)pyrimidin-4-yl]-2-(piperidin-4-yloxy)benzonitrile]: the IC50 on TBK1 and at IKKε was below 0.1 µM throughout.
Regarding `COc1nc(Nc2nccc(-c3ccc(OC4CCN(C(=O)[C@@H]5CC5(F)F)CC4(F)F)c(C#N)c3)n2)ccc1N1CCN(C2COC2)CC1` (stereo partly drawn) [Example 255, 2-[1-((S)-2,2-Difluoro-cyclopropanecarbonyl)-3,3-difluoro-piperidin-4-yloxy]-5-{2-[6-methoxy-5-(4-oxetan-3-yl-piperazin-1-yl)-pyridin-2-ylamino]-pyrimidin-4-yl}-benzonitrile], the IC50 on TBK1 and at IKKε was below 0.1 µM each time.
